Laboratory results as given in US20240279190A1, “COMPOUNDS FOR MODULATING PLATELET-TYPE 12-(S)-LIPOXYGENASE AND METHODS OF USE FOR SAME” (The Regents of The University of California, priority 2021, published 2024).
Numbering of substitutions follows the chain as printed.

What was measured:
[1] = biological target: T1, 12-LOX mutant A417I/V418M (Homo sapiens, UniProt P18054, A417I/V418M); experiment: UV-Vis-based IC50 assay, A417I/V418M mutant; assay type: biochemical
T1 construct: 6xHis (N); made in house; pFastBac1 shuttle vector
T1 sequence (P18054 1-663 A417I/V418M): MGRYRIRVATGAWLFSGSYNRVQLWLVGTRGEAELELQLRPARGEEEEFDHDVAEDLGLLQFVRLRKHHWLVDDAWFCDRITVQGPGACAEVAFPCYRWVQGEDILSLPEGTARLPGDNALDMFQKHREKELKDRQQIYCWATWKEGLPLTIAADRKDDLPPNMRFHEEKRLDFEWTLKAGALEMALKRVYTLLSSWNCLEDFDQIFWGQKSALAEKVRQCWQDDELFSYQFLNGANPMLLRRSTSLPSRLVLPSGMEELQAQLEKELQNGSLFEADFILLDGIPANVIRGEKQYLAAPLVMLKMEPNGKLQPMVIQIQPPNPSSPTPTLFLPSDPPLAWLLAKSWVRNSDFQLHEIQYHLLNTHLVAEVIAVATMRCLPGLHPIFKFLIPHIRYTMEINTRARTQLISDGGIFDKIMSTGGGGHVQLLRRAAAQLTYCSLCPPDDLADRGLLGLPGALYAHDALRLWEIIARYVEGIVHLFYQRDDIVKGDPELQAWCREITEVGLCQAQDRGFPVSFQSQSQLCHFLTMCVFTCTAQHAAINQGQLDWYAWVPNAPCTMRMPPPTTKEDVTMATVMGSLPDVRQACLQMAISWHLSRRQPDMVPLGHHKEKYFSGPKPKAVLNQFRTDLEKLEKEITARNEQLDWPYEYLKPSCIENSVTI
Text: (§1) Based on the ML355 binding mode predicted by the modeling, all residues within 5 Å of any atom of ML355 were selected for experimental mutagenesis. The selected residues were replaced with amino acids with either bulkier or smaller side chains in order to determine what specific interactions play a role in inhibitor binding. […] The numbering refers to the UniProt accession number P18054 sequence, with the N-terminal methionine assigned as amino acid number one. The primers for all mutants were designed using the online QuikChange Primer Design tool (http://www.genomics.agilent.com/primerDesignProgram.jsp) from Agilent Technologies (CA, USA). The mutations were introduced by using the QuikChange® II XL site-directed mutagenesis kit from Agilent, following the instructions in the protocol provided. […]
(§2) The wild type 12-LOX (wt-12-LOX) enzyme and its mutants were expressed as fusion proteins, with an N-terminal 6×His tag, and were affinity purified by nickel-iminodiacetic acid agarose using FPLC (Biorad).
(§3) The percent inhibition was determined by comparing the enzyme rates of the control (DMSO solvent) and the inhibitor sample by following the formation of the conjugated diene product at 234 nm (ε=25,000 M^−1cm^−1). […] The substrate concentration was quantitatively determined by allowing the enzymatic reaction to go to completion in the presence of soybean LOX-1. […]

[2] = biological target: T2, 12-LOX mutant F414L (Homo sapiens, UniProt P18054, F414L); experiment: UV-Vis-based IC50 assay, F414L mutant; assay type: biochemical
T2 construct: 6xHis (N); made in house; pFastBac1 shuttle vector
T2 sequence (P18054 1-663 F414L): T1 sequence (P18054 1-663 A417I/V418M) with F414L, I417A, M418V
Text: as §1, §2, §3

## COc1cccc(CNc2ccc(S(=O)(=O)Nc3nc4c(ccc5ccccc54)s3)cc2)c1O [Compound LOX-12-001, 4-((2-hydroxy-3-methoxybenzyl)amino)-N-(naphtho[1,2-d]thiazol-2-yl)benzenesulfonamide]
[1]; A417I/V418M
  IC50: 120 ± 40 nM
[1]; A417I/V418M vs wt12-LOX
  fold decrease in potency (increase in IC50) compared to wt12-LOX: 2.4 fold
[2]; F414L
  IC50: 180 ± 10 nM
[2]; F414L vs wt12-LOX
  fold increase in IC50 compared to wt12-LOX: 3.6 fold
